Series [1] in a line: Viability (propidium iodide staining), NCI-H460. The format is cell-based. As to conditions: human, NCI-H460 cells (lung), NCI-H460 lung (NSCLC), 500 nM. Here is the method:
Propidium iodide (PI) cannot normally cross the cell membrane; it is thus excluded by viable cells but not from dying or dead cells, having a damaged membrane, where it intercalates into double-stranded nucleic acids and fluoresces when excited at 488 nm.
The cells are pelleted by gentle centrifugation 1200 rpm/5 min/4° C., then the supernatant is discarded and replaced by 1 mL of fresh medium. One hundred microliters of propidium iodide (40 μg/mL) are added to 400 μL of the cell suspension in a FACS tube and viability is measured by flow cytometry as the percentage of cells whose fluorescence recorded on FL-3 channel is comprised between 0 and 2.
(§1) Viability and cell cycle profile, tested with compound (01), at 500 nM: […]

The next series concerns A375. As to the kind of experiment: Cell cycle analysis, A375. The format is cell-based. The settings on record: 500 nM. Here is the method: (§2) The cells are pelleted by gentle centrifugation 1200 rpm/5 min/4° C., then the supernatant is discarded and the cells are fixed with 1 mL of PBS/Ethanol 70% overnight at −20° C. The tubes are then centrifuged during 5 minutes at 1200 rpm and the supernatant is removed. The pellet is then re-suspended in 450 μL of PBS before 50 μL of RNAse (1 mg/mL) and 5 μL of propidium iodide (2 mg/mL) are added. Each tube is left 30 minutes at 37° C. and immediately analysed by flow cytometry after incubation.
(§3) A biparametric dot plot representation FL3 peak vs FL3 integer is plotted and the cells located on the diagonal are gated and analysed on a histogram representing the number of cells as a function of the FL3 peak.
(§4) To assess the relative position of cursors defining relative proportion of cells in subG1, G1, S or G2 phase of the cell cycle, G1 and G2 peaks are to be defined first:
(§5) The G1 peak is defined as the major peak in absence of treatment (generally X=200);
(§6) The G2 peak is centered on the value which is twice the value of the G1 peak (generally X=400).
(§7) Cells in subG1 phase are plotted in the part of the histogram preceding the G1 peak (generally X<200) and cells in S phase are enclosed in the area between the G1 and G2 peaks.
(§8) On this graphic, subG1, G1, S and G2/M phases of the cell cycle can thus be defined.
as §1

The next series concerns MRC5. Nature of the series: Cell cycle analysis, MRC5. The format is cell-based. The settings on record: 500 nM. The procedure:
as §2, §3, §4, §5, §6, §7, §8, §1

Series [2] deals with lung, prostate, breast, colon, melanoma, and myeloid tumor cells. As to the kind of experiment: Inhibition of cell proliferation in vitro, panel of tumor cells (Example 3). The settings on record: Homo sapiens; range over tumor cell lines, printed as 50 nM to 1 μM; 72 h; read-out: IC50s of growth inhibition. It counts as cell-based. Here is the method:
(§9) 2C Proliferation test ViaLight® HS High Sensitivity Cytotoxicity and Cell Proliferation BioAssay Kit
(§10) This protocol allows the determination of the cytostatic and cytotoxic activities of compounds to be tested on mammalian cells in culture and was carried out essentially according to the manufacturer's recommendations.
Cells are suspended in 15 mL of their respective media and are enumerated. They are then diluted in their media in order to obtain: • 2500 cells per 90 μL per well for MRC5 cells • 5000 cells per 90 μL per well for all other cell lines. Cells are then seeded in a 96 well plate, and incubated at least 4 hours in the incubator at 37° C. in 5% CO2. […]
Then, 100 μL of test buffer (test Vialight® test buffer) is added in each well and the control plate is incubated during 2 minutes. The luminescence is read in each well. The mean luminescence for each type of cells is called T0. […]
Then, 100 μL of test buffer (test Vialight® test buffer) is added in each well and the plates are incubated during 2 minutes. The luminescence is read in each well. For each type of cell, the mean luminescence in the well not containing the compound is called C72 and the mean luminescence in well containing a given concentration of a compound to be tested is called T72. […]

Another series concerns Jurkat. Nature of the series: Cell cycle analysis, Jurkat. The format is cell-based. As to conditions: 500 nM. Here is the method:
as §2, §3, §4, §5, §6, §7, §8, §1

Another series concerns U937 cells. Nature of the series: Proliferation test ViaLight HS, U937 cells (Example 8). It counts as cell-based, human. The settings on record: Homo sapiens, U-937, 72 h, 72 h incubation; range = multiple experiments, otherwise individual experiments. Here is the method: as §9, §10
Cells are suspended in 15 mL of their respective media and are enumerated. They are then diluted in their media in order to obtain: • 2500 cells per 90 μL per well for MRC5 cells • 5000 cells per 90 μL per well for all other cell lines. Cells are then seeded in a 96 well plate, and incubated at least 4 hours in the incubator at 37° C. in 5% CO2.
The molecules to be tested are diluted in DMEM with DMSO in order to obtain the following dilutions: • dilution at 250 μM/1% DMSO • dilution at 50 μM/1% DMSO • dilution at […] • dilution at 2 μM/1% DMSO • dilution at 400 nM/1% DMSO • dilution at 80 nM/1% DMSO For each well comprising 90 μL of cell suspension, 10 μL of a solution of the compound to be tested is added, with the 6 different concentrations. The plate is then incubated during 72 hours. One control plate is contacted with 10 μL of DMEM 1% DMSO, without compound to be tested. 50 μL of lysis buffer (test Vialight® lysis buffer) is added in each well of the control plate and the plate is incubated 10 minutes under hood.
Then, 100 μL of test buffer (test Vialight® test buffer) is added in each well and the control plate is incubated during 2 minutes. The luminescence is read in each well. The mean luminescence for each type of cells is called T0.
After the 72 h incubation, in order to determine the viability, 50 μL of lysis buffer (test Vialight® lysis buffer) is added in each well of the plates and the plates are incubated 10 minutes under hood.
Then, 100 μL of test buffer (test Vialight® test buffer) is added in each well and the plates are incubated during 2 minutes. The luminescence is read in each well. For each type of cell, the mean luminescence in the well not containing the compound is called C72 and the mean luminescence in well containing a given concentration of a compound to be tested is called T72. For each dilution (concentration of compound to be tested), T0 and T72 values are compared.
The graph is plotted for the different concentrations of compound and • GI50 (50% of growth inhibitory) is determined, this is the dose producing 50% of cell growth (intersection at Y=50); • TGI (total growth inhibitory) is determined on the graph, this is the dose producing the total arrest of the cell growth (intersection at Y=0); and • LC50 (50% of lethal concentration) is determined, this is the dose producing the death of 50% of the cells (intersection at Y=−50).
Following the protocol described in Example 2C, different compounds according to the invention have been tested for their cytostatic and cytotoxic activities on mammalian cells in culture (specifically U937 cells).
The GI50 (50% of growth inhibitory) has been determined for all the following compounds, i.e. the dose producing 50% of cell growth inhibition.
Where the GI50 provided is in the form of a range, it means that multiple experiments, whose results fall within the range indicated, were performed. Otherwise, results of individual experiments are provided.

A word on the viability: it is a read-out of living cells in per cent, often relative to untreated cells. A low value points to a greater loss of cells. What is called GI50 is the concentration that inhibits growth by half. A low value points to greater sensitivity of the cells. In turn, `COc1cc(NC(=S)NC(=O)/C=C/c2ccco2)ccc1-c1cc2ccccc2oc1=O` [Compound 01, (2E)-3-(2-furyl)-N-({[3-methoxy-4-(2-oxo-2H-chromen-3-yl)phenyl]amino}carbonothioyl)acrylamide] showed a viability at 48 h, 0.5 µM in series [1] (48 h) of 80%. The compound also gave a viability at 72 h, 0.5 µM in series [1] (72 h) of 80%. The “Cell cycle profile - 72 h” value is recorded as “G2/M accumulation” with A375 (G2/M phase fraction), “Strong sub-G1” in the series on A375 (sub-G1 fraction), “G2/M accumulation” in the series on MRC5 and “Strong sub-G1” in the series with Jurkat. For the same compound, the IC50 in series [2] fell in the range of 50 to 1000 nM. This compound also gave a GI50 in the series on U937 cells of 59 to 200 nM.

Values taken from US20090203685A1, “ANTI-PROLIFERATIVE COMPOUNDS FROM A 3-ARYL-COUMARINE OR 3-ARYL-QUINOLIN-2-ONE AND USES THEREOF” (EOS (ETHICAL ONCOLOGY SCIENCE) S.P.A., priority 2006, published 2009).
